Converted amounts (≈) assume the structure as drawn. The source made the active and inactive calls. The calls are words filed in the database; no cut-off is given here.
Assays:
[1] = Cytotoxicity against African green monkey Vero C1008 cells assessed as reduction in cell viability after 24 hrs by MTS assay; assay type: cell-based; details: Chlorocebus sabaeus
ATP synthase = test: Inhibition of Mycobacterium tuberculosis ATP synthase; assay type: protein-complex assay
[2] = Cytotoxicity against Swiss mouse BMDM assessed as reduction in cell viability after 24 hrs by MTS assay
[3] = system: Mycobacterium tuberculosis; test: Antitubercular activity against Mycobacterium tuberculosis H37Rv assessed as growth inhibition after 4 weeks; assay type: functional; details: 672 h
[4] = system: Mycobacterium tuberculosis; test: Antitubercular activity against Mycobacterium tuberculosis H37Rv infected in human blood monocyte derived macrophages assessed as reduction in colony forming units at 4 times MIC incubated for 4 days measured after 4 weeks; assay type: functional, organism-based
[5] = system: Mycobacterium tuberculosis; test: Antitubercular activity against Mycobacterium tuberculosis H37Rv infected in mouse BMDM assessed as reduction in colony forming units at 4 times MIC incubated for 4 days measured after 4 weeks relative to control; assay type: functional; set-up: scale not given: the % may be the effect or the level left
[6] = system: Mycobacterium tuberculosis; test: Antitubercular activity against Mycobacterium tuberculosis H37Rv assessed as growth inhibition by BACTEC assay; assay type: functional
[7] = system: Mycobacterium tuberculosis; test: Antitubercular activity against Mycobacterium tuberculosis H37Rv infected in Swiss mouse assessed as mean survival time at 25 mg/kg, po for 28 days (reference value: 27.8 days); assay type: functional
[8] = system: Mycobacterium tuberculosis; test: Antitubercular activity against Mycobacterium tuberculosis H37Rv infected in Swiss mouse assessed as reduction in colony forming units in lungs at 25 mg/kg, po for 28 days measured after 3 to 4 weeks relative to control; assay type: functional
[9] = system: Mycobacterium tuberculosis; test: Antitubercular activity against Mycobacterium tuberculosis H37Rv infected in Swiss mouse assessed as reduction in colony forming units in lungs at 100 mg/kg, po 6 days/week for 28 days measured after 3 to 4 weeks relative to control; assay type: functional
[10] = system: Mycobacterium tuberculosis; test: Antitubercular activity against Mycobacterium tuberculosis H37Rv infected in Swiss mouse assessed as reduction in colony forming units in lungs at 50 mg/kg, po 6 days/week for 28 days measured after 3 to 4 weeks relative to control; assay type: functional
[11] = system: Mycobacterium tuberculosis; test: Antitubercular activity against Mycobacterium tuberculosis H37Rv infected in Swiss mouse assessed as mean survival time at 100 mg/kg, po 6 days/week for 28 days (reference value: 27.8 days); assay type: functional
[12] = system: Mycobacterium tuberculosis; test: Antitubercular activity against Mycobacterium tuberculosis H37Rv infected in Swiss mouse assessed as mean survival time at 50 mg/kg, po 6 days/week for 28 days (reference value: 27.8 days); assay type: functional
[13] = system: Mycobacterium tuberculosis; test: Antitubercular activity against Mycobacterium tuberculosis H37Rv infected in Swiss mouse assessed as reduction in colony forming units in lungs at 100 mg/kg, po for 28 days measured after 3 to 4 weeks relative to control; assay type: functional
[14] = system: Mycobacterium tuberculosis; test: Antitubercular activity against Mycobacterium tuberculosis H37Rv infected in Swiss mouse assessed as mean survival time at 100 mg/kg, po for 28 days (reference value: 27.8 days); assay type: functional

Structure (SMILES) | IC50 (ATP synthase) [nM] | MIC [3] [µM] | MIC90 [6] [µM] | also measured
COc1nc2ccccc2cc1C(c1cc2ccccc2nc1OC)C(O)(CCN(C)C)c1cccc(Br)c1 (stereo unspecified) | 50 | 1.56 (≈ 0.915 µg/mL) |  | IC50 [1]: > 100 µM; IC50 [2]: > 100 µM
COc1nc2ccccc2cc1C(c1cc2ccccc2nc1OC)C(O)(CCN(C)C)c1ccc2ccccc2c1 (stereo unspecified) | 30 | 0.39 (≈ 0.218 µg/mL) |  | Activity [4]: Active; IC50 [1]: > 100 µM; Activity [5]: 91%; IC50 [2]: > 100 µM
C=CCCOc1nc2ccccc2cc1C(c1cc2ccccc2nc1OCCC=C)C(O)(CCN(C)C)c1ccc(Br)cc1 (stereo unspecified) | 80 | 1.56 (≈ 1.04 µg/mL) |  | IC50 [1]: > 100 µM; IC50 [2]: > 100 µM
COc1nc2ccc(Br)cc2cc1[C@@H](c1ccccc1)[C@@]1(O)c2ccccc2C[C@@H]1CN(C)C (racemic) |  |  | 48.3 (≈ 25 µg/mL) | 
COc1nc2ccc(Br)cc2cc1[C@H](c1ccccc1)[C@@]1(O)c2cc(Br)ccc2CC[C@@H]1CN(C)C (racemic) |  |  | > 50 | 
COc1nc2ccc(Br)cc2cc1[C@@H](c1ccccc1)[C@@]1(O)c2cc(C)ccc2C[C@@H]1CN(C)C (racemic) |  |  | > 50 | 
COc1nc2ccc(Br)cc2cc1[C@@H](c1ccccc1)[C@@]1(O)c2ccccc2OCC[C@@H]1CN(C)C (racemic) |  |  | 22.8 (≈ 12.5 µg/mL) | 
NNC(=O)c1ccncc1 [ISONIAZID] |  |  |  | MST [7]: 29 days; fold change (FC) [8]: 257.08; Activity [5]: 98%
COc1nc2ccccc2cc1C(c1cc2ccccc2nc1OC)C(O)(CCN(C)C)c1ccccc1 (stereo unspecified) | 70 | 0.39 (≈ 0.198 µg/mL) |  | Activity [4]: Active; fold change (FC) [9]: 808.22; IC50 [1]: > 100 µM; Activity [5]: 90%; fold change (FC) [10]: 118; MST [11]: 25 days; IC50 [2]: > 100 µM; MST [12]: 29 days
COc1nc2ccc(Br)cc2cc1[C@H](c1ccccc1)[C@@]1(O)c2ccccc2C[C@@H]1CN(C)C (racemic) |  |  | 12.1 (≈ 6.26 µg/mL) | 
CN(C)CCC(O)(c1cccc(Br)c1)C1c2cc3ccccc3nc2OCC/C=C\CCOc2nc3ccccc3cc21 (stereo unspecified) | 10 |  |  | 
C=CCOc1nc2ccccc2cc1C(c1cc2ccccc2nc1OCC=C)C(O)(CCN(C)C)c1ccc(Br)cc1 (stereo unspecified) | 280 | > 50 |  | 
CO[C@H]1/C=C/O[C@@]2(C)Oc3c(C)c(O)c4c(O)c(c(/C=N/N5CCN(C)CC5)c(O)c4c3C2=O)NC(=O)/C(C)=C\C=C\[C@H](C)[C@H](O)[C@@H](C)[C@@H](O)[C@@H](C)[C@H](OC(C)=O)[C@@H]1C [RIFAMPIN] |  |  |  | Activity [5]: 98%
COc1nc2ccccc2cc1C(c1cc2ccccc2nc1OC)C(O)(CCN(C)C)c1ccc(Br)cc1 (stereo unspecified) | 10 | 0.66 (≈ 0.387 µg/mL) |  | IC50 [1]: > 100 µM; IC50 [2]: > 100 µM
COc1nc2ccccc2cc1C(c1cc2ccccc2nc1OC)C(O)(CCN(C)C)c1cccc2ccccc12 (stereo unspecified) | 1 | 0.7 (≈ 0.39 µg/mL) |  | IC50 [1]: > 100 µM; IC50 [2]: > 100 µM
COc1nc2ccc(Br)cc2cc1[C@@H](c1ccccc1)[C@@]1(O)c2ccccc2CCC[C@@H]1CN(C)C (racemic) |  |  | 45.8 (≈ 25 µg/mL) | 
COc1nc2ccc(Br)cc2cc1[C@@H](c1ccccc1)[C@@]1(O)c2cc(Cl)ccc2OCC[C@@H]1CN(C)C (racemic) |  |  | > 50 | 
COc1nc2ccc(Br)cc2cc1[C@H](c1ccccc1)[C@@]1(O)c2cc(C)ccc2C[C@@H]1CN(C)C (racemic) |  |  | 12.5 (≈ 6.64 µg/mL) | 
COc1nc2ccc(Br)cc2cc1[C@H](c1ccccc1)[C@@]1(O)c2ccccc2CC[C@@H]1CN(C)C (racemic) |  |  | > 50 | 
COc1nc2ccc(Br)cc2cc1[C@@H](c1ccccc1)[C@@]1(O)c2ccccc2CC[C@@H]1CN(C)C (racemic) |  |  | > 50 | 
CC[C@@H](CO)NCCN[C@@H](CC)CO [ETHAMBUTOL] |  |  |  | fold change (FC) [13]: 26.94; MST [14]: 29 days
COc1nc2ccc(Br)cc2cc1[C@H](c1ccccc1)[C@@]1(O)c2ccccc2OC[C@@H]1CN(C)C (racemic) |  |  | > 50 | 
COc1nc2ccc(Br)cc2cc1[C@@H](c1ccccc1)[C@@]1(O)c2ccc(Br)cc2C[C@@H]1CN(C)C (racemic) |  |  | > 50 | 
C=CCOc1nc2ccccc2cc1C(c1cc2ccccc2nc1OCC=C)C(O)(CCN(C)C)c1cccc(Br)c1 (stereo unspecified) | 30 | > 50 |  | 
COc1nc2ccc(Br)cc2cc1[C@@H](c1ccccc1)[C@@]1(O)c2cc(Br)ccc2CC[C@@H]1CN(C)C (racemic) |  |  | > 50 | 
COc1nc2ccc(Br)cc2cc1[C@@H](c1ccccc1)[C@@]1(O)c2ccccc2OC[C@@H]1CN(C)C (racemic) |  |  | > 50 | 
COc1nc2ccc(Br)cc2cc1[C@H](c1ccccc1)[C@@]1(O)c2ccc(Br)cc2C[C@@H]1CN(C)C (racemic) |  |  | > 50 | 
C=CCOc1nc2ccccc2cc1C(c1cc2ccccc2nc1OCC=C)C(O)(CCN(C)C)c1ccccc1 (stereo unspecified) | 40 | > 50 |  | 
COc1nc2ccc(Br)cc2cc1[C@H](c1ccccc1)[C@@]1(O)c2cc(Cl)ccc2OCC[C@@H]1CN(C)C (racemic) |  |  | > 50 | 
